According to article PMC12621184, “Synthesis and Pharmacological Characterization of Nociceptin/Orphanin FQ Dimeric Ligands” (Journal of Medicinal Chemistry, 2025):
Entries after “also recorded” stand apart in the source; their conditions may differ. Bridge positions count the residues as written; N and C are the ends. Ends that are not written are not given here. Peptide text beside a SMILES is read from it. I, II: the chains in the order shown.

Columns and labels:
human NOP [1] = biological target: T1, human NOP (Homo sapiens, UniProt P41146); assay: NOP receptor–G protein interaction BRET assay; format: biochemical; design: expressed in transfected cells; host or cells: membranes of HEK293 cells stably coexpressing NOP-RLuc and Gβ1-RGFP; settings: N = 5 experiments in duplicate
T1 sequence (P41146 whole entry): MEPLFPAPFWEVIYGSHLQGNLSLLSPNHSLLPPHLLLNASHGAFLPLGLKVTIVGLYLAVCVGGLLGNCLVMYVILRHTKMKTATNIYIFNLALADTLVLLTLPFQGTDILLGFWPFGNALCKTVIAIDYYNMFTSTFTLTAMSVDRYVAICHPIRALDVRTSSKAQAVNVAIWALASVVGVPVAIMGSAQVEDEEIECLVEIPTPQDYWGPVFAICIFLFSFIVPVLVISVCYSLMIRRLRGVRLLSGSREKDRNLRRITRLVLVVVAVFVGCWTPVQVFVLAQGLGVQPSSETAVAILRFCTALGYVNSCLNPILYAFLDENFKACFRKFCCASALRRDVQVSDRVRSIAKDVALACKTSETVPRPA
Experimental: A BRET interaction assay was used, as previously detailed in ref , to study the propensity of ligands to evoke interaction between the NOP receptor and to G protein. Membranes taken from HEK293 cells stably coexpressing the fusoproteins NOP-RLuc and Gβ1-RGFP were used. Such cells were grown in DMEM medium supplemented with 10% FBS, 2 mM L-glutamine, […] G418, […] hygromycin B, 100 IU/mL penicillin, and 100 IU/mL streptomycin in a humidified atmosphere with 5% CO2 at 37 °C. Cell membranes were thawed and resuspended in PBS supplemented with 0.01% BSA before the assay, and an amount of 3 μg of total protein was dispensed in each of the 96 wells together with 2 μM Prolume Purple Coelenterazine. All experiments were carried out at room temperature. Ligands were added, and averaged BRET ratios from 10 min measurements were computed. BRET ratios were computed as counts per second (CPS) obtained on a Victor Nivo (PerkinElmer) with 405 (10) nm and 510 (30) nm bandpass filters. Vehicles’ BRET ratios were derived from light passed through 510 divided by that passed through 405 filters. Vehicles BRET values were subtracted from all computations, and data sets were normalized as a fraction of N/OFQ maximal effects.
(§1) Concentration-response curves to agonists were analyzed by a four-parameter logistic nonlinear regression model: Effect = baseline + (E max – baseline)/(1 + 10^((logEC50–log[ligand])slope)). […] Experimental data were expressed as mean ± sem of at least 5 experiments. Potency values were expressed as the mean and CL95%. In vitro E max values were analyzed by one-way ANOVA, while in vivo latency data were evaluated by one-way ANOVA followed by Dunnett’s post hoc test. The proportion of mice losing the righting reflex was compared by Fisher’s exact test performed on raw data. GraphPad Prism 10.0 software was used for all of the analyses. The terminology employed is consistent with the International Union of Basic and Clinical Pharmacology (IUPHAR) recommendations. ,

human NOP [2] = biological target: T1, human NOP; assay: Calcium mobilization assay, CHO cells with NOP receptor and chimeric G protein; format: cell-based; design: expressed in transfected cells
Experimental: Chinese hamster ovary (CHO) cells stably coexpressing the human NOP, μ, or κ opioid receptors and the Gαqi5 protein or the human δ and the GαqG66Di5 protein were used in this assay. , Cells were cultured in DMEM/F-12 (1:1) medium supplemented with 10% FBS, 2 mM L-glutamine, […], 100 IU/mL penicillin, and 100 IU/mL streptomycin. Cells were maintained at 37 °C in a humidified atmosphere with 5% CO2 and were seeded at 50 000 cells/well into 96-well black, clear-bottom plates 24 h before test. Loading for 45 min with a solution consisting of HBSS supplemented with 2.5 mM probenecid, 3 μM Fluo-4 AM, and 0.01% pluronic acid ensures the calcium-sensitive dye (Fluo-4) reaches the needed concentration inside the cell, while the exchange of the solution with 100 μL/well of buffer consisting of HBSS with 20 mM HEPES, 2.5 mM probenecid, and 500 μM Brilliant Black allows for fluorescence background to decrease. Serial dilutions of ligands were prepared in HBSS buffer with 20 mM HEPES and 0.02% bovine serum albumin (BSA) to minimize the ligands’ stickiness to plasticware. The automated microplate reader FlexStation II (Molecular Devices, CA, US) was employed at 37 °C to detect changes in fluorescence intensity. The effects of all compounds were expressed as the maximum change in percentage over the baseline fluorescence measured in samples treated with vehicles.
as §1

sleep in rats = settings: reported in the literature, ref not given; cited from earlier work
[3] = test system: mouse vas deferens from NOP(+/+) mice; assay: Electrically stimulated mouse vas deferens bioassay, NOP(+/+) tissues; settings: for potency (pEC50) for inhibition of electrically induced contractions / maximal inhibition of electrically induced contractions: mVD from CD-1 NOP(+/+) mice, 5 experiments; for potency (pEC50) for inhibition of electrically induced contractions: 33 °C, mean (CL95%); for maximal inhibition of electrically induced contractions: mean ± sem
Experimental: (§2) This study was approved by the Animal Welfare Body of the University of Ferrara and by the Italian Ministry of Health (authorization number CBCC2.N.BXI). Experiments were performed on an isolated mouse vas deferens. All experiments were conducted with mice bred and housed in the University of Ferrara’s animal facility under specific pathogen-free conditions (SPF). All mice were housed in cages with individual ventilation, with a constant temperature of 21 °C, 60% humidity, and a 12 h light/dark cycle. Food and water were provided ad libitum. CD-1 NOP(+/+) and CD-1 NOP(−/−) male mice, aged 9 to 12 months, were used. Animals were sacrificed on the day of the experiment with CO2 overdose. Bioassay experiments were performed as previously described. The tissues were suspended in 5 mL organ bath containing Krebs solution (NaCl 118.5 […]). The Krebs solution was oxygenated with 95% O2 and 5% CO2 and the temperature set at 33 °C with a resting tension of 0.3 g applied to the tissues. Tissues were stimulated through two platinum electrodes with a supramaximal rectangular pulse of 1 ms duration, 0.05 Hz frequency, and 80 V of amplitude. The electrically evoked contractions were measured isotonically by means of Basile strain gauge transducers (Basile, IT) and a recorder with a Power Lab 8 instrument (ADInstruments, CO, U.S.). Following an equilibration period of approximately 60 min, the contractions induced by electrical field stimulation were stable. At this time, cumulative concentration response curves were carried out.
as §1

[4] = test system: mouse vas deferens from NOP(−/−) mice; assay: Electrically stimulated mouse vas deferens bioassay, NOP(−/−) tissues; settings: mVD from CD-1 NOP(−/−) mice; 5 experiments
Experimental: as §2
Concentration-response curves to agonists were analyzed by a four-parameter logistic nonlinear regression model: Effect = baseline + (E max – baseline)/(1 + 10^((logEC50–log[ligand])slope)). […] Experimental data were expressed as mean ± sem of at least 5 experiments. Potency values were expressed as the mean and CL95%. In vitro E max values were analyzed by one-way ANOVA, while in vivo latency data were evaluated by one-way ANOVA followed by Dunnett’s post hoc test. […]

[5] = biological target: murine NOP receptor (mouse (endogenous in mouse vas deferens)) (UniProt P35377)
Chain of murine NOP receptor (mouse (endogenous in mouse vas deferens)) (P35377 whole entry): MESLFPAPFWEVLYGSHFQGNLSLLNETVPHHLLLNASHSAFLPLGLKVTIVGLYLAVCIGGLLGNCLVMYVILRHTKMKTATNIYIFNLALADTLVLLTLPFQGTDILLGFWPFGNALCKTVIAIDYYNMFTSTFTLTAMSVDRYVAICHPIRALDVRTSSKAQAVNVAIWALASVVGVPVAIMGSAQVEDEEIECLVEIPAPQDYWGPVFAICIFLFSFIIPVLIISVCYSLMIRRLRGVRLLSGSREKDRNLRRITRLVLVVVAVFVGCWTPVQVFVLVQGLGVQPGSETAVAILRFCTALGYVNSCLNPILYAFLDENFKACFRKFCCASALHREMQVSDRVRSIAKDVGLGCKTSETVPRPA

[6] = test system: loss of the righting reflex (RR) in mice; assay: Loss of the righting reflex assay in mice; format: in vivo, mouse; settings: 10 nmol, icv
Experimental: All of the experimental procedures adopted in the in vivo studies comply with the European Directive 2010/63/EU on protecting animals used for scientific purposes and Italian Legislative Decree no. 26 of March 4, 2014. These experiments were approved by the Animal Welfare Body of the University of Ferrara and by the Ministry of Health (authorization number 677/2024-PR). In vivo studies have been reported following ARRIVE guidelines. All experiments were conducted with mice bred and housed in the University of Ferrara’s animal facility under specific pathogen-free conditions. All mice were housed in cages with individual ventilation, with a constant temperature of 21 °C, 60% humidity, and a 12 h light/dark cycle. Food and water were provided ad libitum. CD-1 male and female mice, aged 2 to 4 months, were used. Details about the generation of NOP(−/−) and NOP(+/+) mice have been published previously; , these mice have been backcrossed on CD-1 strain in our laboratories. NOP(+/+) and NOP(−/−) littermates were obtained by mating with NOP(±) mice. All mice were genotyped using the polymerase chain reaction previously described. All mice were used only once. The RR assay was performed as previously described. […] Diazepam 15 mg/kg was injected ip. When the animals lost RR, they were placed in a plastic cage, and the time was recorded by an expert observer, blind to drug treatments and/or genotype. Animals were judged to have regained the RR response when they could correct themselves three times within 30 s. Sleeping time is defined as the amount of time between the loss and regaining of the RR; it was rounded to the nearest minute.
as §1

[7] = biological target: human nociceptin/orphanin FQ (N/OFQ) peptide receptor (human) (UniProt P41146)
Chain of human nociceptin/orphanin FQ (N/OFQ) peptide receptor (human) (P41146 whole entry): as the sequence (P41146 whole entry) above

NOP-RLuc = NOP-RLuc (UniProt P41146)
Chain of NOP-RLuc (P41146 whole entry): as above

In the case of CC(C)C[C@H](NC(=O)[C@H](CCCCN)NC(=O)[C@H](CCCNC(=N)N)NC(=O)[C@H](C)NC(=O)[C@H](CO)NC(=O)[C@H](CCCCN)NC(=O)[C@H](CCCNC(=N)N)NC(=O)[C@H](C)NC(=O)CNC(=O)[C@@H](NC(=O)[C@H](Cc1ccccc1)NC(=O)CNC(=O)CNC(=O)[C@@H](N)Cc1ccccc1)[C@@H](C)O)C(=O)N[C@@H](C)C(=O)N[C@@H](CSSC[C@H](NC(=O)[C@H](C)NC(=O)[C@H](CC(C)C)NC(=O)[C@H](CCCCN)NC(=O)[C@H](CCCNC(=N)N)NC(=O)[C@H](C)NC(=O)[C@H](CO)NC(=O)[C@H](CCCCN)NC(=O)[C@H](CCCNC(=N)N)NC(=O)[C@H](C)NC(=O)CNC(=O)[C@@H](NC(=O)[C@H](Cc1ccccc1)NC(=O)CNC(=O)CNC(=O)[C@@H](N)Cc1ccccc1)[C@@H](C)O)C(=O)N[C@@H](CCC(N)=O)C(N)=O)C(=O)N[C@@H](CCC(N)=O)C(N)=O [1j, [[Cys^16]N/OFQ-NH2]2] (I: H-FGGFTGARKSARKLACQ-NH2 / II: H-FGGFTGARKSARKLACQ-NH2; disulfide I:16-II:16), the “NOP–G protein interaction E max ± sem” value (human NOP [1]; effects normalized to N/OFQ-NH2 (E max = 1), mean ± sem) is reported as 0.98 ± 0.02, the EC50 (human NOP [1]; membranes from HEK293 cells coexpressing NOP-RLuc and Gβ1-RGFP, room temperature, mean (CL95%), read-out: NOP–G protein interaction pEC50 (CL95%) (converted)) is reported as 0.174 nM and the EC50 (human NOP [2]; CHO cells coexpressing human NOP and Gαqi5, Fluo-4, 37 °C, mean (CL95%), N = 5 experiments in duplicate, read-out: Ca^2+ mobilization pEC50 (CL95%) (converted)) is reported as 1.38 nM. The “Ca^2+ mobilization E max ± sem” value (human NOP [2]; CHO cells coexpressing human NOP and Gαqi5, maximum change in percentage over baseline fluorescence, mean ± sem, N = 5 in duplicate) was 312 ± 38 % over the baseline.

In the case of O=C1NCN(c2ccccc2)C12CCN([C@@H]1CC[C@H]3CCCc4cccc1c43)CC2 [Ro 64-6198], the “induced sleep at EEG recordings” value (sleep in rats) is given as 3 to 5 h.

For O=C(O)c1nc2ccccc2n([C@@H]2C[C@H]3CCC[C@@H](C2)N3C2C[C@H]3CCC[C@@H](C2)C3)c1=O (stereo partly shown) [Sunobinop], the “induced sleep at EEG recordings” value (sleep in rats) is listed as 3 to 5 h.

In the case of [D-Pen^2,D-Pen^5]enkephalin [DPDPE], the “potency (pEC50) for inhibition of electrically induced contractions” value [3] is reported as 7.72 (7.45–7.99), the “maximal inhibition of electrically induced contractions” value [3] is reported as 86 ± 6% and the “effect in mVD tissues from NOP(−/−) mice (in words)” value [4] is reported as “superimposable”.

Molecule nociceptin/orphanin FQ (peptide) has a maximal inhibition of electrically induced contractions of the mouse vas deferens, NOP(+/+) tissues [5] of 71% and a potency (pEC50), inhibition of electrically induced contractions of the mouse vas deferens, NOP(+/+) tissues [5] of 7.59 pEC50.

For nociceptin/orphanin FQ [N/OFQ], the “mice that lost the RR, 10 nmol” value ([6]; CD-1 mice, N = 8–10 per group) was “fewer than half”, the “duration of action on RR (in words)” value ([6]; mice that lost the RR) was “short-lasting action; also recorded: few minutes” and the “potency (pEC50) for inhibition of electrically induced contractions” value [3] was 7.59 (7.41–7.77). The “maximal inhibition of electrically induced contractions” value [3] was 71 ± 4%, the “kinetics of action in mVD (in words)” value ([3]; onset and reversibility upon washout) was “fully and rapidly reversible upon washout” and the “effect in mVD tissues from NOP(−/−) mice (in words)” value [4] was “completely inactive”.

B1: [[Cys^14]N/OFQ-NH2]2 (peptide)
peptide: FGGFTGARKSARKCANQ-NH2
modifications: also: homodimer: Cys14-Cys14 disulfide to second copy
B1 showed a pEC50, inhibition of electrically induced contractions of the mouse vas deferens, NOP(+/+) tissues [5] of 6.79 pEC50, an E max, Ca^2+ mobilization in CHO cells with human NOP and Gαqi5 (% over baseline) [7] of 241 and a pEC50, Ca^2+ mobilization in CHO cells with human NOP and Gαqi5 [7] of 9.14 pEC50. The pEC50, NOP–G protein interaction (BRET, membranes of HEK293 cells with NOP-RLuc and Gβ1-RGFP) (NOP-RLuc) was 9.91 pEC50 and the E max, NOP–G protein interaction (BRET), normalised to N/OFQ-NH2 (E max = 1) (NOP-RLuc; scale: fraction of the maximal effect of N/OFQ-NH2) was 0.8.
